Reference: patent EP1339379B1, “NOVEL USE OF PROTEIN HYDROLYSATES” (Henkel Kommanditgesellschaft auf Aktien, priority 2000, dated 2002)

Assay: Hair-restructuring effect by HP-DSC: melting point of permed hair strands after post-treatment with the active
Conditions: melting point of the hair (DSC, Perkin Elmer DSC-7); permed strands dipped 10 min at 23°C in 1% aqueous solution of the active at pH 3, rinsed 1 min, dried, rested 16 h; comparison without post-treatment 149,8
Text: Strähnen der Fa. Alkinco (0,5g, Code 6634) wurden einer herkömmlichen Dauerwellbehandlungen mit dem Handelsprodukt Poly Lock-Normale Dauerwelle unterzogen. Im Rahmen dieser Dauerwellbehandlung wurden die Fasern in einem ersten Schritt für 40 Minuten bei Raumtemperatur der Reduktionslösung (enthaltend 7,9 Gew.-% Thioglykolsäure) ausgesetzt, mit reinem Wasser gespült und anschließend bei Raumtemperatur für 10 Minuten fixiert (Oxidationslösung, enthaltend 2,6 Gew.-% Wasserstoffperoxid). Nach der oxidativen Behandlung wurden die Fasern gespült und getrocknet.
Die Strähnen wurden jeweils bei einer Temperatur von 23°C 10 Minuten in eine 1% ige wäßrige Lösung der jeweiligen Wirkstoffe bei einem pH - Wert von 3, welcher mit Natronlauge oder Salzsäure eingestellt wurde, getaucht. Anschließend wurde jede Haarsträhne 1 Minute mit klarem Wasser gespült, getrocknet und 16 h ruhen gelassen.
Mittels einer DSC-Analyse (Perkin Elmer DSC-7) wurden die folgenden in Tabelle 1 dargestellten Schmelzpunkte ermittelt. Eine genaue Beschreibung der Methode findet sich beispielsweise in der DE 196 173 95 A1

| Substance | Schmelzpunkt in °C |
| --- | --- |
| Poly-D/L-Alanin | 151,8 °C |
| Poly-L-Serin | 151,9 °C |
